Data taken from US9353089B2, “Compositions and methods for the treatment of malaria” (Saint Louis University, priority 2013, dated 2016).
Like-named read-outs stand apart in the source and are kept apart here. Marks after values point to notes of the source that are not given here.

Tests used:
[1] = RLM metabolic stability assay; format: in vitro ADME; conditions: pH 7.4, rat liver microsomes, read-out: RLM t1/2
Procedure: In this protocol, the metabolic stability of compounds at 1 μM was determined in Mouse Liver Microsome (MLM), rat liver microsomes (RLM) or human liver microsomes (HLM). […]. After incubation at 37° C. for a specific time period (0, 5, 10, 20 and 30 min), the reaction was terminated by the addition of 200 μL ice cold acetonitrile containing internal standard (100 ng/mL) after 100 μL aliquots of reaction mixture was removed. The quenched reaction mixtures were centrifuged at 3200 rpm for 5 min, and 100 μL of the supernatant were transferred to 96-well deep plate. The samples in 96 well plate were analyzed by LC-MS/MS using an Applied Biosystems-Sciex model API 3000 mass spectrometer. The data were analyzed using the following equations. […]

recombinant human BACE1 = recombinant human BACE1 (Homo sapiens, UniProt P56817); assay: β-Secretase (BACE1) enzyme inhibition FRET assay; format: biochemical
recombinant human BACE1, sequence (P56817 46-501 limits assumed): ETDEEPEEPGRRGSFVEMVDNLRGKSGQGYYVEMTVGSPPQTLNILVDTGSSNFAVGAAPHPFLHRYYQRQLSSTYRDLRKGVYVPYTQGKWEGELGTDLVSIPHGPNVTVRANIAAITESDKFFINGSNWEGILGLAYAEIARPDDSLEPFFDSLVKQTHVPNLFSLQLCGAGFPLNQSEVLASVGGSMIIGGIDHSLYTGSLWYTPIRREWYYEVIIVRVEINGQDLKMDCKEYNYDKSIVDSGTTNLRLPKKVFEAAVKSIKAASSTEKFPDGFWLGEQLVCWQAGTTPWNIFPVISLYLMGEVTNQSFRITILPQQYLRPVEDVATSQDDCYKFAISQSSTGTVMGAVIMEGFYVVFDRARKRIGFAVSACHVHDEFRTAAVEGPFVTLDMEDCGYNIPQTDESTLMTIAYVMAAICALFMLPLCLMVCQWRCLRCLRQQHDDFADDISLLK
Procedure, shortened: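 FRET cleavage by rhBACE1 with substrate at 20 μM final, 60 min at room temperature. Time-resolved fluorescence read at Ex/Em 360/460 nm. IC50 obtained by non-linear regression.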

[2] = Plasma compound concentration in the in vivo efficacy study; conditions: mice; for concentration at 24 h / concentration at 1 h / concentration at 6 h: NIH, mouse, plasma; for concentration at 24 h: 24 h post last dose on Day 3; for concentration at 1 h: 1 h post last dose on Day 3; for concentration at 6 h: 6 h post last dose on Day 3
[3] = target: Plasmepsin-2 (PM-2; Plm II) (Plasmodium falciparum (isolate HB3), UniProt P46925); assay: Plasmepsin-2 enzyme inhibition assay; format: biochemical
Plasmepsin-2 (PM-2; Plm II), sequence (P46925 125-453 limits assumed): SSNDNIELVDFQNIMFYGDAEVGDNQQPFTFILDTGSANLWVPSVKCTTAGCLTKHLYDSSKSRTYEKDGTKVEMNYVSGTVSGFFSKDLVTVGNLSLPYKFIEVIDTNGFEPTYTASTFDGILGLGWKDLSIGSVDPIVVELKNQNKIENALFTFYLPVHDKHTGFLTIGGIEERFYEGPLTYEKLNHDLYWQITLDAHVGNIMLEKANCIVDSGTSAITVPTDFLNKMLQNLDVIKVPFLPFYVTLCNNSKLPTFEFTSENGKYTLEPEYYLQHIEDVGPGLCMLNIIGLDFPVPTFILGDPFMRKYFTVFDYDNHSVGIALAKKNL
Procedure, shortened: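 Enzymes activated in pH 4.5 citrate/DTT buffer, then assayed in 50 mM sodium acetate pH 4.7, 0.01% Tween-20. Compounds added before fluorogenic peptide substrate (final 20 µM); 60 min at room temperature, fluorescence Ex/Em 360/535 nm, IC50 by curve fit.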

[4] = system: Plasmodium chabaudi ASS and ASCQ strains; assay: In vivo antimalarial efficacy 4-day suppressive test; conditions: NIH mice, Day 4 postinoculation
Procedure: Briefly, NIH mice (n=8 per group) were inoculated i.p. with 2×10^7 parasitized (Plasmodium chabaudi ASS or ASCQ) red blood cells. […] Groups (n=6) including a vehicle control and chloroquine (CQ) as a reference drug were included. Parasitemia levels were determined on the day following the last treatment (Day 4).

[5] = target: Plasmepsin (PM-4; Plm IV) (Plasmodium falciparum (isolate 3D7), UniProt Q8IM16); assay: Plasmepsin-4 enzyme inhibition assay; format: biochemical; conditions: Table 8
Plasmepsin (PM-4; Plm IV), sequence (Q8IM16 122-449 limits assumed): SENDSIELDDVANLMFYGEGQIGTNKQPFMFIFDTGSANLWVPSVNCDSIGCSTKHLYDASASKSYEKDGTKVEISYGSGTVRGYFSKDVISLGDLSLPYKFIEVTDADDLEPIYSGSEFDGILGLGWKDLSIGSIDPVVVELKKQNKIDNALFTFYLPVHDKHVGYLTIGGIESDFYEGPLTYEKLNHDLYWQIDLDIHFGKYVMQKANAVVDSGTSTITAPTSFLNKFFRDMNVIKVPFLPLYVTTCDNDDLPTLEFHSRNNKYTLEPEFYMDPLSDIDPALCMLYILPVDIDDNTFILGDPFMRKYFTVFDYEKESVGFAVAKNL
Procedure: Plasmepsin-2 (PM-2; Plm II) and Plasmepsin (PM-4; Plm IV) expression and purification was performed following the published protocols (Istvan E S and Goldberg D E, 2005). The final purified protein was activated by diluting the protein to 0.3 mg/mL in activating buffer (0.1 M citrate pH 4.5, 0.1% Tween-20, 50 mM dithiothreitol) and incubated at room temperature for 40 min, then the activated enzyme was diluted in assay buffer (50 mM sodium acetate pH 4.7, 0.01% Tween-20). The enzymatic inhibition reaction was performed in 384 well plates with a total volume of 20 μl. 10 μl of diluted PM-2 or PM-4 enzyme was added to the 384-well plate except blank wells (blank wells add 10 μL of assay buffer) and 20 nL of serials of diluted 1000× compounds were added to the wells with 520 Echo® Liquid Handling System (Labcyte Inc.). 10 μL PM-2 peptide substrate (AnaSpec, Cat#, 62050) with assay buffer was then added to final concentration of 20 μM to start the reaction. After incubation the reaction at room temperature for 60 min, the fluorescence intensity at Ex/Em=360 nm/535 nm was measured using EnVision multilabel plate reader (Perkin-Elmer). The IC50 values were obtained using Graph Pad Prism 4 and are reported in Tables 8 and 9 below as PM-2 IC50 values.

[6] = Human Plasma Protein Binding (hPPB) assay; format: in vitro ADME; conditions: rapid equilibrium dialysis
Procedure: Human Plasma Protein Binding (hPPB) of test compounds was measured by rapid equilibrium dialysis device using the RED Device Inserts. In the reaction of 5 h, the drug concentration of the sample chamber and buffer chamber can be determined, through which we can calculated hPPB of test compounds. RED Device Inserts and Single-Use RED Base Plate were purchased from the Linden Bioscience, Woburn, Mass. (Taiwan, Thermo scientific). […]. Pooled human plasma from healthy individuals in this study was obtained from the Southern Medical University (China) and was stored frozen at −20° C. until use. SHZ-88A Reciprocating thermostatic oscillator was purchased from Taicang City Experimental Equipment Co. (China). Chlorpromazine (>99% in purity, positive control) and Phenacetin (>99% in purity, internal standard, IS) were all purchased from the Sigma Chemical Co. (China). Chlorpromazine HCl was used as a positive control. An aliquot ([…]) of plasma was accurately added into the sample chamber, and 6 μL compounds solution (500 μM, 50% DMSO) was added (n=3). An aliquot (500 μL) of Dulbecco solution was added into the buffer chamber. These solution were all oscillated for 5 hours (37° C., 90 rpm). Then, 50 μL solution in sample chamber was removed, 50 μL Dulbecco solution was added, and mixed. Also, 50 μL solution in buffer chamber was removed, 50 μL plasma was added, and mixed. 200 μL ACN (including internal Standard, 100 ng/mL) were added separately, oscillated, mixed, and centrifuged (20 min, 15000 g). An aliquot (50 μL) of the supernatant was accurately transferred to a clean 1.5 mL test tube and 100 μL H2O was added, mixed. 10 μL of mixture was separately injected into LC-MS system for determination of the drug concentration in the sample chamber and buffer chamber. The data were analyzed using the following equation: % hPPB=[1−(Concentrationbuffer chamber/Concentrationplasma chamber)]*100% (Barre, et al., 1985, which is incorporated herein by reference).

[7] = 100 mpk orally once daily for four days

SMILES	half-life at 1 μM [1]	IC50 (recombinant human BACE1; Table 8, read-out: BACE IC50)	IC50 (recombinant human BACE1; Table 13, read-out: BACE1 IC50)	concentration at 24 h ([2]; 110 mg/kg, 110 mpk oral)	Plasma [compound] (ng/mL), determined at 30 min post dose ([2]; 110 mpk oral, 30 min post last dose on Day 3)	IC50 ([3]; Table 8, read-out: PM-II IC50)	IC50 ([3]; Table 13, read-out: PM-2 IC50)	% Inhibition of parasitemia ([4]; 110 mpk orally once daily for four days)	IC50 [5]	hPPB (%) [6]	concentration at 1 h ([2]; 100 mg/kg, 100 mpk oral)	concentration at 6 h ([2]; 100 mg/kg, 100 mpk oral)	concentration at 24 h ([2]; 100 mg/kg, 100 mpk oral)	% Inhibition of parasitemia [4, 7]
COc1ccc(C2(c3ccc(OC)cc3)NC(=N)N(C3CCOCC3)C2=O)cc1 [Example 176, 2-imino-5,5-bis(4-methoxyphenyl)-3-(oxan-4-yl)-imidazolidin-4-one]	83 min	~10000 nM	~10100 nM	29 ng/mL	4140^e ng/mL	7 nM	6.81 nM	63%	18 nM	78.1%				
COc1ccc(C2(c3ccc(OC)cc3)NC(=N)N(C3CCN(C(=O)OC(C)(C)C)CC3)C2=O)cc1 [Example 206, tert-butyl 4-[2-imino-4,4-bis(4-methoxyphenyl)-5-oxoimidazolidin-1-yl]piperidine-1-carboxylate]	14 min	6010 nM				2 nM	2.76 nM		10 nM	99.7%	2520 ng/mL	2190 ng/mL	7 ng/mL	73%
COc1ccc(C2(c3ccc(OC)cc3)NC(=N)N(CC3CCOCC3)C2=O)cc1 [Example 275, 2-imino-5,5-bis(4-methoxyphenyl)-3-(oxan-4-ylmethyl)imidazolidin-4-one]	35 min	2070 nM	2070 nM			17 nM	16.9 nM		59 nM	88.7%	10400 ng/mL	3030 ng/mL	123 ng/mL	41%
